1 substance from patent US10472599B2, “Microfluidic cell culture of patient-derived tumor cell spheroids” (Dana-Farber Cancer Institute, Inc., priority 2015, dated 2019) can be followed below.

What all share (type): cell-based, human
The subject of test [1] is spheroids derived from multiple different melanoma resection specimens. Kind of test: Luminex cytokine profiling of conditioned media from melanoma spheroid culture. The procedure: On Day 3, media was aspirated from the device and ˜200 μL media (1:1 mixture of 10% FBS-DMEM and EGM2 supplemented with growth factors per protocol) with or without treatment (e.g., anti-PD-1 monoclonal Ab) were added to each device. The devices were subsequently placed in humidified, sterile containers, and returned to 37° C. incubation.
On Day 6 (or 48-72 hours post-treatment), conditioned media was collected for cytokine analysis. Light microscopy was performed and images obtained to characterize and document spheroid dispersal and/or putative immune response, which is commonly characterized by non-pigmented cells surrounding the brown-pigmented melanoma spheroids. Media was collected from each device by aspiration using a 200 μL pipet, transferred to sterile 1.5 mL Eppendorf tubes, and frozen at −80° C. prior to submission to CMOP for multiplex cytokine/chemokine analysis. Also on Day 6, the cells present in the 3D culture device following treatment were characterized by multiple methods.
As the spheroids and co-cultured endothelial cells are bathed in media, the conditioned media was extracted from the device and luminex cytokine profiling was performed.

For another test, the system named is melanoma tumor spheroids. In words: Flow cytometry immune profiling of cells extracted from the device post-treatment. The procedure: For flow cytometry, RNA sequencing analysis, or T-cell receptor (TCR) sequencing the cells were removed using collagenase (150 μL per device) after media had been removed. […] The cells in collagenase were aspirated into a 15 mL conical tube containing 4.0 mL of sterile 1× PBS and spun down for 5 minutes at 1100 rpm. The PBS wash was gently aspirated and the pellet resuspended in 1.5 mL 10% FBS-DMEM for flow cytometry. In some instances, genomic DNA is prepared from flow-sorted T lymphocytes for TCR sequencing using the ImmunoSeq platform from Adaptive Biotechnologies to evaluate T-cell receptor clonality. Clonality can be assessed in spheroids relative to bulk tumor, and in response to immune checkpoint blockade to evaluate for increased TCR clonality (indicating expansion of tumor-reactive T cell clones). For RNA sequencing, the resuspension can be performed using 1.5 mL 10% FBS-DMEM, PBS, or a compatible lysis buffer.
Additionally, although it was demonstrable by flow cytometry of melanoma tumor spheroids at baseline that they consisted of up to 20% immune cells, including T cells, dendritic cells, monocytes (not shown), the value of extracting cells from the device and repeating flow cytometry post-treatment was realized. By repeating collagenase digestion within the device and washing cells in PBS, conditions have been developed that enable repeat immune profiling. […]
For orientation: Flow cytometry measures light scatter and fluorescence of single cells or particles in a stream.

Test [2] deals with spheroids derived from multiple different melanoma resection specimens. In words: Light microscopy of immune response in patient-derived melanoma spheroids in 3D microfluidic culture. The conditions noted are these: pembrolizumab 250 μg/mL. Here is the method: On Day 1, tumor was collected in an operating room and placed in a sterile 15 mL conical tube bathed with culture media (10% FBS with DMEM or RPMI) and stored on ice. The media was aspirated in a sterile hood and the tumor specimen gently placed in a normal 10 cm culture dish on ice. Using a scalpel, the tumor was minced into smaller pieces. A sample can optionally be exposed to strong collagenase treatment to generate single cells that can be submitted directly for flow cytometry. To the 10 cm dish containing the minced tumor was added 10 mL of collagenase solution (10 mL media, 150 μL HEPES (15 mM final concentration), 100 μL collagenase (100 U/μL stock, 1 unit/μL final concentration)). The minced tumor and collagenase mixture was subsequently transferred to a 50 mL conical tube, and then transferred to a fresh low-attachment 10 cm dish. The low-attachment dish comprising the sample was incubated at 37° C. for 30-60 minutes while checking every 15-30 minutes, as the duration of time required varies from specimen to specimen. The intended outcome of this step is to generate multicellular spheroids via a limited collagenase digestion, so the sample should not be comprised entirely of single cells. After the […] incubation period, 10 mL of fresh media was added to the dish containing the tumor sample and the contents (˜20 mL) transferred to a 50 mL conical tube. […]

For pembrolizumab, the “certain cytokines (e.g., IP10) in conditioned media” value in test [1] (combination with anti-CD28 (FIG. 5)) is reported as “induced”. Moreover, in test [1] (following αPD1 exposure (FIG. 5)), the “cytokines in conditioned media” value is “pronounced up-regulation of multiple cytokines”. Further, the “markers of early CD8 T cell activation such as CD69” value in the test on melanoma tumor spheroids (post-treatment flow cytometry (FIG. 6A)) is recorded as “observed increase”. Also, the “specific immune checkpoint receptors such as TIM3” value in the test with melanoma tumor spheroids (post-treatment flow cytometry (FIG. 6B)) was “increase”. In addition, the immune response result in test [2] (absence of anti-CD28 co-stimulation (FIG. 4A)) and in test [2] (presence of anti-CD28 co-stimulation (FIG. 4B)) was “observed immune response” in each case.
